The NIST ThermoML archive (doi:10.1021/je800246v)
Numbers after ± are expanded uncertainties.

Experiment: activity coefficient (dimensionless); of the first substance listed, at infinite dilution; xn = mol fraction of the nth substance listed
Settings: 101 kPa, Liquid, Chromatography, x1 = 0

SMILES | activity coefficient (315.9 K) | activity coefficient (325.3 K) | activity coefficient (334.8 K) | activity coefficient (306.6 K)
Cc1ccccc1C [1,2-dimethylbenzene] + CCCCn1cc[n+](C)c1.F[P-](F)(F)(F)(F)F | 2.37 ± 0.25 | 2.21 ± 0.23 | 2.2 ± 0.23 | 
Cc1cccc(C)c1 [1,3-dimethylbenzene] + CCCCn1cc[n+](C)c1.F[P-](F)(F)(F)(F)F | 2.38 ± 0.25 | 2.43 ± 0.26 | 2.36 ± 0.25 | 
Cc1ccc(C)cc1 [1,4-dimethylbenzene] + CCCCn1cc[n+](C)c1.F[P-](F)(F)(F)(F)F | 2.27 ± 0.24 | 2.24 ± 0.24 | 2.28 ± 0.24 | 
CC(=O)CC(C)=O [2,4-pentanedione] + CCCCn1cc[n+](C)c1.F[P-](F)(F)(F)(F)F | 1.15 ± 0.12 | 1.07 ± 0.11 | 1.03 ± 0.1 | 
CC(C)CO [2-methyl-1-propanol] + CCCCn1cc[n+](C)c1.F[P-](F)(F)(F)(F)F | 5.03 ± 0.53 | 4.38 ± 0.46 | 3.84 ± 0.4 | 
CC(C)CCO [3-methylbutan-1-ol] + CCCCn1cc[n+](C)c1.F[P-](F)(F)(F)(F)F | 7.71 ± 0.81 | 6.34 ± 0.67 | 5.2 ± 0.55 | 
CCC(O)CC [3-pentanol] + CCCCn1cc[n+](C)c1.F[P-](F)(F)(F)(F)F | 4.7 ± 0.49 | 4.14 ± 0.44 | 3.78 ± 0.4 | 
CC(C)=O [acetone] + CCCC[n+]1ccc(C)cc1.F[B-](F)(F)F | 1.01 ± 0.1 | 1.03 ± 0.1 |  | 0.995 ± 0.1
CC(C)=O [acetone] + CCCCn1cc[n+](C)c1.F[P-](F)(F)(F)(F)F | 0.707 ± 0.074 | 0.709 ± 0.074 | 0.699 ± 0.073 | 
CCCCO [butan-1-ol] + CCCCn1cc[n+](C)c1.F[P-](F)(F)(F)(F)F | 5.59 ± 0.59 | 4.77 ± 0.5 | 4.24 ± 0.45 | 
CCC(C)O (stereo unspecified) [butan-2-ol] + CCCCn1cc[n+](C)c1.F[P-](F)(F)(F)(F)F | 4.29 ± 0.45 | 3.78 ± 0.4 | 3.37 ± 0.35 | 
CCC(C)=O [butanone] + CCCC[n+]1ccc(C)cc1.F[B-](F)(F)F | 1.57 ± 0.16 | 1.59 ± 0.17 |  | 1.53 ± 0.16
CCC(C)=O [butanone] + CCCCn1cc[n+](C)c1.F[P-](F)(F)(F)(F)F | 0.987 ± 0.1 | 0.99 ± 0.1 | 0.983 ± 0.1 | 
CCO [ethanol] + CCCC[n+]1ccc(C)cc1.F[B-](F)(F)F | 1.62 ± 0.17 | 1.49 ± 0.15 |  | 1.7 ± 0.18
CCO [ethanol] + CCCCn1cc[n+](C)c1.F[P-](F)(F)(F)(F)F | 3.02 ± 0.32 | 2.69 ± 0.28 | 2.47 ± 0.26 | 
CO [methanol] + CCCC[n+]1ccc(C)cc1.F[B-](F)(F)F | 0.98 ± 0.1 | 0.907 ± 0.093 |  | 1.01 ± 0.1
CO [methanol] + CCCCn1cc[n+](C)c1.F[P-](F)(F)(F)(F)F | 2.16 ± 0.23 | 1.95 ± 0.2 | 1.81 ± 0.19 | 
CCCCCO [pentan-1-ol] + CCCCn1cc[n+](C)c1.F[P-](F)(F)(F)(F)F | 9.71 ± 1 | 8.01 ± 0.84 | 6.47 ± 0.68 | 
CCCC(C)O (stereo unspecified) [pentan-2-ol] + CCCCn1cc[n+](C)c1.F[P-](F)(F)(F)(F)F | 5.66 ± 0.59 | 4.99 ± 0.52 | 4.38 ± 0.46 | 
CCCO [propan-1-ol] + CCCCn1cc[n+](C)c1.F[P-](F)(F)(F)(F)F | 4.01 ± 0.42 | 3.46 ± 0.36 | 3.18 ± 0.33 | 
CC(C)O [propan-2-ol] + CCCCn1cc[n+](C)c1.F[P-](F)(F)(F)(F)F | 3.65 ± 0.38 | 3.16 ± 0.33 | 2.85 ± 0.3 | 
Cc1ccccc1 [toluene] + CCCCn1cc[n+](C)c1.F[P-](F)(F)(F)(F)F | 1.71 ± 0.18 | 1.59 ± 0.17 | 1.71 ± 0.18 | 
